These are literature values, as cited in PMC9175271, “Live-cell microscopy or fluorescence anisotropy with budded baculoviruses—which way to go with measuring ligand binding to M4 muscarinic receptors?” (Open Biology, 2022).

For the data set, the target named is M4 receptor. Conditions: mean of literature values, per ligand as in column ref.; ref [50], [63], [74]–[89].

As to `CN1[C@@H]2C[C@@H](OC(=O)[C@H](CO)c3ccccc3)C[C@H]1[C@@H]1O[C@@H]12` [scopolamine], the “pKi ± s.e.m. (radioligand)” value is reported as 9.28 ± 0.19.
